# Values of other authors in publication PMC11748363, “Antimicrobial and Antiproliferative Properties of 2‐Phenyl‐N‐(Pyridin‐2‐yl)acetamides” (Chemical Biology & Drug Design, 2025).
# Tested on: Mycobacterium tuberculosis H37Ra
# Set-up: method as in Nawrot et al. 2021
# Details: previously published N‐pyridinyl benzamides; ref Nawrot et al. 2021; cited from earlier work
compound,measurement,value
"COc1cccc(C(=O)Nc2cccc(Cl)n2)c1 [C00003 R1=6-Cl,R2=3-OMe]","MIC Mtb H37Ra (μg/mL), previously published compounds",31.25 µg/mL
"O=C(Nc1cccc(Cl)n1)c1ccc(Cl)cc1 [C00003 R1=6-Cl,R2=4-Cl]","MIC Mtb H37Ra (μg/mL), previously published compounds",> 500 µg/mL
"COc1ccc(C(=O)Nc2cccc(Cl)n2)cc1 [C00003 R1=6-Cl,R2=4-OMe]","MIC Mtb H37Ra (μg/mL), previously published compounds",15.625 µg/mL
"O=C(Nc1cccc(Cl)n1)c1ccccc1 [C00003 R1=6-Cl,R2=H]","MIC Mtb H37Ra (μg/mL), previously published compounds",125 µg/mL
"O=C(Nc1ccccn1)c1ccccc1Cl [C00003 R1=H,R2=2-Cl]","MIC Mtb H37Ra (μg/mL), previously published compounds",> 500 µg/mL
"COc1ccccc1C(=O)Nc1ccccn1 [C00003 R1=H,R2=2-OMe]","MIC Mtb H37Ra (μg/mL), previously published compounds",31.25 µg/mL
